Measurements published in patent US20240041764A1, “Sustained-Release Oral Fosamprenavir Formulation for Treatment of Reflux” (The Medical College of Wisconsin, Inc., priority 2022, published 2024).
“Also recorded” adds a separate entry of the source.

System: LPR mouse model (pepsin-mediated laryngeal damage)
Test: in vivo LPR mouse model: mechanical injury plus laryngeal pepsin instillation, H&E histology
Settings: for protection against pepsin-mediated laryngeal damage (histology): 0.3 mg/ml pepsin pH7, 4 weeks
Source text: Three replicate animals per treatment condition were anticipated to suffice for verification of reproducibility in each experiment without excessive use of animal life. The three mice were randomly allocated to treatment groups. No data were excluded from analysis.
Six-week-old female Jackson A/J mice (Jackson Laboratory, Bar Harbor, ME) were fed D-62 powdered Wattenberg diet, 2 g/mouse/day^95 and allowed to acclimate for one week upon arrival prior to experiments. In accord with previously established methods for modeling aerodigestive tract damage attributed to GERD and LPR,^1,95-99 mechanical injury applied during the first two weeks of a four-week treatment course was used to predispose the laryngeal mucosa to chemical injury by pepsin/acid applied throughout the four weeks. […] Briefly, anesthetized mice were suspended by upper teeth on a slanted board under an operating microscope.
In a preliminary experiment to validate the LPR mouse model (i.e. laryngeal damage by pepsin at neutral and acidic pH), 20 μl saline (solvent control) or 0.3 mg/ml pepsin at pH7.0 or 4.0 were provided to mice (n=3) by laryngeal instillation at 24, 48, and 72 hours after mechanical injury during weeks 1 and 2 (FIG. 6); laryngeal instillation without wounding (3 days/week) continued during weeks 3 and 4. […] Mice were sacrificed at conclusion of the fourth week.
To test the protective effect of HIV protease inhibitors on pepsin-mediated damage in vivo, inhibitors were delivered by aerosol or gavage concurrently with wounding (days 2, 8) and solvent/pepsin instillation (days 3-5, 9-11, 16-18 and 23-25). Aerosol or gavage was provided on days 1-5, 8-12, 15-19, and 22-25, and mice sacrificed day 26. Mice were anesthetized with isoflurane (3% in 2.5LPM, 3-5 minutes prior to procedures) as opposed to Avertin due to frequency. […] Aerosol was generated as described^100. Briefly, a 10 ml suspension of drug in ethanol was placed in the baffle, such that the concentration would remain constant at the equilibrium solubility. Droplets of ethanol containing dissolved drug were generated by an ultrasonic atomizer (nominal frequency 1.7 MHz) and entrained by air at a flow rate of 0.5 LPM with a custom-built glass baffle (UMN Department of Chemistry Glass Shop). The aerosol cloud was then passed through a cylindrical drying column containing an annular ring of charcoal. The ethanol was removed and the emanating dry aerosol particles of pure drug were then directed into the exposure chamber. The mass deposited on filters was measured gravimetrically and total output rate (mg/min) was determined. The aerosol concentration (mass/volume of air) was calculated by dividing the total output rate by the air flow rate (0.5 LPM). The inhaled mass of drug (Minh) for each mouse was defined as Minh=[Aerosol]*RMV*t, where Aerosol is the aerosol concentration of drug, RMV is the respiratory minute volume of the mice (0.025 L/min), and t is the aerosol exposure time. […] Actual mass deposited was not determined but anticipated to be 10% of inhaled mass (the deposition fraction of […] aerosol particles in mice).
Tissues were collected, fixed in paraformaldehyde, embedded in paraffin and 4 um sections stained with hematoxylin and eosin (H&E) via automated stainer. Slides were reviewed by a board-certified pathologist (JM) blinded to treatment groups.

CC(C)CN(C[C@@H](O)[C@H](Cc1ccccc1)NC(=O)O[C@H]1CO[C@H]2OCC[C@H]21)S(=O)(=O)c1ccc(N)cc1 [darunavir, [(3aS,4R,6aR)-2,3,3a,4,5,6a-hexahydrofuro[2,3-b]furan-4-yl]N-[(2S,3R)-4-[(4-aminophenyl)sulfonyl-(2-methylpropyl)amino]-3-hydroxy-1-phenylbutan-2-yl]carbamate]
laryngeal histology, drug with saline (solvent), no pepsin (aerosol): absent
protection against pepsin-mediated laryngeal damage (histology) (aerosol, inhaled mass 0.93 mg/kg/day fosamprenavir, 12 mg/kg/day darunavir): moderate protection against pepsin-mediated damage; also recorded: mild protection against pepsin-mediated damage
laryngeal histology, drug with saline (solvent), no pepsin (gavage): Mild reactivity
protection against pepsin-mediated laryngeal damage (histology) (gavage, 20 mg/kg/day fosamprenavir (Lexiva), 8.6 mg/kg/day darunavir (Prezista)): obscured the ability to detect its effect on pepsin-mediated damage and not and appeared similar
laryngeal histology, drug with saline (solvent), no pepsin (gavage, listed as Darunavir): mild reactivity (rare intraepithelial lymphocytes)
